Key:
[1] = tested on: BMDCs; experiment: Cell viability of BMDCs (CellTiter-Glo, cellular ATP); assay type: cell-based, mouse; details: for EC50: Mus musculus, BMDC, zymosan-stimulated BMDCs, read-out: Viability loss EC50
Description: (§1) Bone marrow-derived DCs were differentiated from C57BL/6 bone marrow in the presence of GM-CSF-conditioned media. CD11c^+ CX3CR1^hi myeloid cells and CD11c^+ CX3CR1^− DCs were isolated from the small intestine lamina propria of Cx3cr1^eGFP/+ mice (12). Detection of cell-surface Thy1.1 expression on BMDCs from 10BiT reporter mice was conducted as described previously (24). Cell viability was estimated by change in total cellular ATP levels using CellTiterGlo assays (Promega). Preparation of recombinant SIK proteins and IC50 measurements were conducted as described previously (21). Total RNA was extracted using a NucleoSpin 96 RNA isolation kit (Macherey-Nagel) followed by cDNA synthesis and multiplex RT-PCR using a microfluidic dynamic array (Fluidigm). The concentrations of TNF-α, IL-6, IL-10, IL-12p40, IL-1β and RANTES in culture supernatants were detected using a FlexSet Cytometric bead array (BD Biosciences). Alternatively, IL-10 secretion was quantified using ELISA (BD Biosciences) or AlphaLISA (PerkinElmer) assays. NO production was estimated based on nitrate content in culture medium using the Greiss reagent.
(§2) BMDCs were seeded into black 384-well plates (Corning) at 20,000 cells/well in 40 μL complete DMEM using a Multidrop COMBI (Thermal Scientific) followed by incubation at 37° C. for 2 hr to allow for plate adherence. SIK inhibitors (100 nL/well) were pin-transferred from concentrated DMSO stocks using CyBi-Well Vario (CyBio) into duplicate plates. For each treatment plate, 32 out of 384 wells were pinned with DMSO as negative control and 32 out of 384 wells were pinned with PGE2 (5 μM final concentration). Two days after SIK inhibitor treatment, BMDCs were stimulated with zymosan (4 μg/mL final concentration) dispersed in culture medium (20 μL/well) using a Multidrop COMBI. After 18 hr, 5 μL of resulting supernatant was transferred from the culture plate to white 384-well AlphaLISA plates (Perkin Elmer) using a CyBi-Well Vario. IL-10 abundance in the supernatants was determined using an AlphaLISA assay (PerkinElmer) according to the manufacture's protocol and signal intensity measured using an EnVision multimode plate reader. SIK inhibitor activity was expressed as a % of the differences between the mean abundance of IL-10 in PGE2 versus DMSO wells on a per plate basis. Cell viability assays were conducted on the same tissue culture plates as the IL-10 assay. First media was removed and replaced by solution of 50% (vol/vol) CellTiter-Glo (Promega) in PBS. Luminescence was read using an Envision multimode plate reader, and signal intensity calculated relative to DMSO control wells on a per plate basis.

[2] = tested on: IL-10 production by zymosan-stimulated BMDCs; experiment: IL-10 up-regulation in zymosan-stimulated BMDCs (AlphaLISA/ELISA); assay type: cell-based, mouse; details: for EC50: Mus musculus, BMDC, read-out: IL-10 induction EC50; for effect on IL-10 production by BMDCs (in words): kinase inhibitor screen / PGE2 control
Description: as §1
(§3) C57BL/6 mice were euthanized and bone marrow harvested from femurs and tibias as described previously (Graham D B, et al. (2007) An ITAM-signaling pathway controls cross-presentation of particulate but not soluble antigens in dendritic cells. The Journal of experimental medicine 204(12):2889-2897). BMDCs were differentiated DMEM supplemented with 2 mM GlutaMAX, 10% (vol/vol) FBS, penicillin, streptomycin and 2% mouse GM-CSF conditioned media derived from TOPO cells. Cultures were differentiated for 7 days and routinely analyzed for >90% CD11c (APC anti-CD11c clone HL3; BD Biosciences) positivity by flow cytometry before use in experiments. Lentiviral transduction of bone marrow cultures was conducted by addition of 293T culture supernatants containing lentiviral particles encoding the CREB dependent luciferase reporter construct or CRTC3 targeting or control shRNAs one day post-isolation. Stable integration of lentiviral shRNA constructs was selected by addition of puromycin (3 μg/mL) on day 4 post-transduction. After 2 days, stably transduced BMDCs were released from selection and used in subsequent assays. Unless otherwise indicated, cells were treated for 2 days with PGE2 (5 μM) or HG-9-91-01 (0.5 μM) or an equivalent concentration of DMSO (≤0.5%) and then stimulated for 18 hr with LPS (100 ng/mL), R848 (10 μg/mL) or zymosan (4 μg/mL).
as §2, with “Luminescence was read using an Envision multimode plate reader, and signal intensity calculated relative to DMSO control wells on a per plate basis.” left out

[3] = target: T1, SIK2 (Homo sapiens, UniProt Q9H0K1); experiment: Protein kinase assay ([γ-32P] ATP, phosphocellulose paper) against SIK2; assay type: biochemical; details: for IC50: read-out: Enzyme Inhibition IC50 SIK2
T1 construct: made in house
Description: as §1
(§4) In another set of experiments, the activities of the SIK inhibitors described herein against SIK were determined according to the methods reported in Hastie et al., Nature Protocols, 2006, 1, 968-971.
(§5) This buffer consisted of 50 mM Tris-HCl, pH 7.5, 0.1 mM EGTA, 1 mg ml^−1 bovine serum albumin and 0.1% (vol/vol) 2-mercaptoethanol.
(§6) An assay buffer of 500 mM Tris-HCl, pH 7.5, 1 mM EGTA, and 100 mM magnesium acetate was used for the protein kinase assay.
(§7) The specific activity of the [γ-^32P] ATP solution was 1×10^5 to 1×10^6 c.p.m. per nmol depending on what was needed to produce an optimal signal/noise ratio. Stocks of nonradioactive (“cold”) ATP were dissolved in 10 mM HEPES, and the pH of the resulting stock solutions was adjusted to 7.4. To measure the concentration of ATP, a sample of such a stock solution was diluted to 20 μM, and the absorbance of the diluted sample was measured at 259 nm. The absorbance of a 20-μM stock solution of ATP at 259 nm was about 0.31. The 1-mM solution of cold ATP was “spiked” with [γ-^32P] ATP to produce a radioactivity of 1×10^5 to 1×10^6 c.p.m. per nmol.
(§8) 1) The number of assay samples needed was determined based on, e.g., the following considerations: (i) each condition was assayed in duplicate; (ii) two controls containing peptide or protein substrate and ATP but no SIK were included to assess contamination by any free ATP not incorporated into substrate, alongside two controls lacking a peptide or protein substrate but containing ATP and SIK to correct for any incorporation of phosphate into the kinase itself (e.g., autophosphorylation); and (iii) a maximum of 40 samples were assayed manually at one time by a single person. Microcentrifuge tubes were label distinctly and were placed on ice.
(§9) 4) Dilute the SIK in enzyme dilution buffer and place on ice.
(§10) 5) Pipette 5 j±l of 10× concentrated assay buffer, 5 j±l peptide or protein substrate (the two “no-substrate” control tubes had 5 j±l water added instead of peptide or protein substrate), and 30 μl distilled water into each tube. Keep the tubes on ice.
(§11) 6) Add 5 μl diluted SIK to each tube, except for the two “no-enzyme” control tubes, which had 5 μl enzyme dilution buffer added, and still keeping the tubes on ice. In some cases, premixed “cocktails” of assay components were prepared containing peptide or protein substrate, assay buffer, and distilled water to limit the number of additions to each assay tube. Each of steps 7 to 14 was done behind a plexiglass shield.
(§12) 7) Insert each tube into the water bath at intervals of 15 s to allow the assay mixture to reach 30° C. Begin the SIK reactions by adding 5 μl of 1 mM [γ-^32P] ATP to each tube at intervals of 15 s. Close each tube, vortex for 1 s to mix the contents and immediately replace in a rack in the water bath. Incubate for 10 min at 30° C. […]

[4] = target: T2, SIK3 (Homo sapiens, UniProt Q9Y2K2); experiment: Protein kinase assay ([γ-32P] ATP, phosphocellulose paper) against SIK3; assay type: biochemical; details: read-out: Enzyme Inhibition IC50 SIK3
T2 construct: made in house
Description: as §1, §4, §5, §6, §7, §8, §9, §10, §11, §12

[5] = target: T3, SIK1 (Homo sapiens, UniProt P57059); experiment: Protein kinase assay ([γ-32P] ATP, phosphocellulose paper) against SIK1; assay type: biochemical; details: 1 μM; DMSO set to 100%; read-out: Activity of protein kinase treated with 1 μM of I-1 (% control (DMSO)) SIK1
T3 construct: made in house
Description: as §1, with “Total RNA was extracted using a NucleoSpin 96 RNA isolation kit (Macherey-Nagel) followed by cDNA synthesis and multiplex RT-PCR using a microfluidic dynamic array (Fluidigm).” left out, “NO production was estimated based on nitrate content in culture medium using the Greiss reagent.” left out
In another set of experiments, the activities of the SIK inhibitors described herein against SIK were determined according to the methods reported in Hastie et al., Nature Protocols, 2006, 1, 968-971. […]
The specific activity of the [γ-^32P] […] To measure the concentration of ATP, a sample of such a stock solution was diluted to 20 μM, and the absorbance of the diluted sample was measured at 259 nm. The absorbance of a 20-μM stock solution of ATP at 259 nm was about 0.31. […] ATP to produce a radioactivity of 1×10^5 to 1×10^6 c.p.m. per nmol. […]

[6] = tested on: BMDCs; experiment: Cytokine (cytometric bead array) and NO (Greiss) production by stimulated BMDCs; assay type: cell-based, mouse
Description: as §1, §3
After stimulation of cells with microbial ligands, the culture medium was removed, clarified by centrifugation for 10 min at 14,000×g, and the concentration of TNF-α, IL-6, IL-10, IL-12p40, IL-1β and RANTES were measured using FlexSet Cytokine Bead Array (BD Biosciences) according to the manufacturer's instructions. Where indicated, ELISAs were used to detect IL-10 and IL-12p70 (BD Biosciences) according to the manufacturer's instructions. NO production was estimated based on nitrate content in culture medium using the Greiss reagent as described previously (Miletic A V, et al. (2007) Vav proteins control MyD88-dependent oxidative burst. Blood 109(8):3360-3368).

[7] = tested on: BMDCs; experiment: Multiplex qPCR of transcripts in stimulated BMDCs; assay type: cell-based, mouse; details: 2 days pre-treatment, 4 hr LPS, R848 or zymosan
Description: as §1
as §3, with “Unless otherwise indicated, cells were treated for 2 days with PGE2 (5 μM) or HG-9-91-01 (0.5 μM) or an equivalent concentration of DMSO (≤0.5%) and then stimulated for 18 hr with LPS (100 ng/mL), R848 (10 μg/mL) or zymosan (4 μg/mL).” left out
Total RNA was extracted using a NucleoSpin 96 RNA isolation kit (Macherey-Nagel). […] Relative gene expression was calculated from Ct values and normalized against ACTB mRNA levels as described previously (Pfaffl MW (2001) A new mathematical model for relative quantification in real-time RT-PCR. Nucleic acids research 29(9):e45). […]

T2 sequence (Q9Y2K2 whole entry): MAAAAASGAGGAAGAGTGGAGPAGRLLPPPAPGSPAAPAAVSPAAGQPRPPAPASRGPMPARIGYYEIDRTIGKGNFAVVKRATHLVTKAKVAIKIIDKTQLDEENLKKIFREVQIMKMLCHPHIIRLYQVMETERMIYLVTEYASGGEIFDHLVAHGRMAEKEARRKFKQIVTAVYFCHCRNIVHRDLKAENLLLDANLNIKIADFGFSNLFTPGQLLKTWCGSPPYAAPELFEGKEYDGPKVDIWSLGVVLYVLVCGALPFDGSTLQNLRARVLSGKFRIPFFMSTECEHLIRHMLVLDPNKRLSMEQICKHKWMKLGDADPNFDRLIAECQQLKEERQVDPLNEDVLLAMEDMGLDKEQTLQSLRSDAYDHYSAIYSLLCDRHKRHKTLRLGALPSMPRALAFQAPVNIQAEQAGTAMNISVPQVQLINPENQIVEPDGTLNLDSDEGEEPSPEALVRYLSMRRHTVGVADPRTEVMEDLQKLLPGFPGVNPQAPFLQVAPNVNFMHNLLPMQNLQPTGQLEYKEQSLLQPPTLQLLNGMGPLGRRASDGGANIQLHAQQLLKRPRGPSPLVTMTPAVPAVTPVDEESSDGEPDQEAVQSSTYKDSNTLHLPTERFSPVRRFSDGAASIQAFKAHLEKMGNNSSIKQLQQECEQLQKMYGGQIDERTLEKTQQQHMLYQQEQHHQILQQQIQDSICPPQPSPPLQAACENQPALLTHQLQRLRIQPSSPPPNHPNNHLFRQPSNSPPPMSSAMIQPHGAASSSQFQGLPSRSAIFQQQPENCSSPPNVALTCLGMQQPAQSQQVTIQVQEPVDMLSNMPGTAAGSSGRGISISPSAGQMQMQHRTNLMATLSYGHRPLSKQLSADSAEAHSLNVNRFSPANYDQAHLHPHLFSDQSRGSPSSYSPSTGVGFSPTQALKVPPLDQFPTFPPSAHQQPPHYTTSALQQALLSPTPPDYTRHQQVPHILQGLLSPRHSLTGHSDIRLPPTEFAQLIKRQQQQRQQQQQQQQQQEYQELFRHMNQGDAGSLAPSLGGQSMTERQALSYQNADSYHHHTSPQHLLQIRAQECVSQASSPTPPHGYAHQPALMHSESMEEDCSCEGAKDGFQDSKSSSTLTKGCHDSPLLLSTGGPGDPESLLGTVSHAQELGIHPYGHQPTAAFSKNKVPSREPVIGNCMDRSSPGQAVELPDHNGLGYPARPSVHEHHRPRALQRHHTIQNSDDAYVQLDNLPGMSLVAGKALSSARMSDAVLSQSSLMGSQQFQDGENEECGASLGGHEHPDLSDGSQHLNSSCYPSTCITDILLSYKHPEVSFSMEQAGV
T1 sequence (Q9H0K1 whole entry): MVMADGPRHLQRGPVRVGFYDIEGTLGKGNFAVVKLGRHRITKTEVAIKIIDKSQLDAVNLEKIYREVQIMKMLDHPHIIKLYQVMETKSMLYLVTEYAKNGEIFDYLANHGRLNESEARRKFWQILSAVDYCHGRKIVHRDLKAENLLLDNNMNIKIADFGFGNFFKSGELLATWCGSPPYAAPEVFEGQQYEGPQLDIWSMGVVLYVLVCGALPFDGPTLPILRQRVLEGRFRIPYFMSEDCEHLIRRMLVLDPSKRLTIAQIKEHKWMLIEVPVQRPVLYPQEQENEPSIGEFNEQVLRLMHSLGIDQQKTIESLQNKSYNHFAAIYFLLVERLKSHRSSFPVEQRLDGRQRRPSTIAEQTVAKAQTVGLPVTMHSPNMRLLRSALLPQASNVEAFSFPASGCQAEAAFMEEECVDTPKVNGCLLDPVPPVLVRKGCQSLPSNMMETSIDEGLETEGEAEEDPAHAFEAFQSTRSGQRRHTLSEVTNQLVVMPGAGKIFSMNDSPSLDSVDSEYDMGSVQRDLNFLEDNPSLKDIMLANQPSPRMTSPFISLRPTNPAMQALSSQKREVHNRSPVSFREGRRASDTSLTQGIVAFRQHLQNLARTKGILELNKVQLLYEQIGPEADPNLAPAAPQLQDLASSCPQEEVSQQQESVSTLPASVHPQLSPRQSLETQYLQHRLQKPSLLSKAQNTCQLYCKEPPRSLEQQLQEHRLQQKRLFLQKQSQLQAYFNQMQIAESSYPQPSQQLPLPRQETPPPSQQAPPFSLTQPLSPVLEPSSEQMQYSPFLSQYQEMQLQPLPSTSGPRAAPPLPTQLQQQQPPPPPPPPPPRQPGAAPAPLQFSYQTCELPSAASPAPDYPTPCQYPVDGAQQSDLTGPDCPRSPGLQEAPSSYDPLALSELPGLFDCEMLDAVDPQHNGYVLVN
T3 sequence (P57059 whole entry): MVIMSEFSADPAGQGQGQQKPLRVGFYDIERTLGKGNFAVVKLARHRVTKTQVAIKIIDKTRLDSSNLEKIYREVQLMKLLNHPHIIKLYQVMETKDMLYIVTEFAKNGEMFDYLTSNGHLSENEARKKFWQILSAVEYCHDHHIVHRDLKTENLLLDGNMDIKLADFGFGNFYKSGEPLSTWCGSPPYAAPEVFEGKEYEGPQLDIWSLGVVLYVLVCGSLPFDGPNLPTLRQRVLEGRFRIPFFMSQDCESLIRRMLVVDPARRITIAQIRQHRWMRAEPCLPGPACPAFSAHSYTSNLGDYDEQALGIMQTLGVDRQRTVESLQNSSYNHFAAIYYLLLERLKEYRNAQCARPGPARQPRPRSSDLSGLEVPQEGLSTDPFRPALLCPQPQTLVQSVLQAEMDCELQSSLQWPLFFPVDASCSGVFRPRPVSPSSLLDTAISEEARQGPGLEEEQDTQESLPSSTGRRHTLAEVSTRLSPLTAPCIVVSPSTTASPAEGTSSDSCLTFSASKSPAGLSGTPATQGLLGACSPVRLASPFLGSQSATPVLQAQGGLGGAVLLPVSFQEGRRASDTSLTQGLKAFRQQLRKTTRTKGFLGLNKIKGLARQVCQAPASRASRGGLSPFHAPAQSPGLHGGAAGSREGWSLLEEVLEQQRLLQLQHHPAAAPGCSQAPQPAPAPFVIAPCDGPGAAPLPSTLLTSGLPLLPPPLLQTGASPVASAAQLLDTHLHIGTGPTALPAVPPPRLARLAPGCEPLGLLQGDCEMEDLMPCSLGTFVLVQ

| SMILES | viability of BMDCs (in words) [1] | EC50 [1] | IC50 [3] | IC50 [4] | further results |
| --- | --- | --- | --- | --- | --- |
| Cc1c[nH]c(-c2cnc(NCCNc3ccc(C#N)cn3)nc2-c2ccc(Cl)cc2Cl)n1 [CHIR-99021, reference compound] | reduced viability |  |  |  | maximum effect on IL-10 production ([2]; zymosan-stimulated BMDCs, hit criterion): > 30 % of the PGE2 response |
| COc1cc(N2CCC(N3CCN(C)CC3)CC2)ccc1Nc1ncc(Cl)c(Nc2ccccc2S(=O)(=O)C(C)C)n1 [TAE-684, reference compound] | reduced viability |  |  |  |  |
| Cc1cccc(C)c1OC(=O)N1C/C=C\COCc2cc(ccc2OCCN2CCC(O)CC2)Nc2nccc1n2 [I-5] |  | 6120 nM | 12 nM | 73.7 nM | EC50 ([2]; zymosan-stimulated BMDCs): 23800 nM |
| CCN1CCN(CCOc2ccc3cc2COC/C=C/CN(C(=O)Oc2c(C)cccc2C)c2ccnc(n2)N3)CC1 [I-2] |  | 6580 nM | 87.8 nM | 445 nM | remaining activity at 1 µM [5]: 15.9%; remaining activity at 1 µM ([3]; 1 μM, DMSO set to 100%, read-out: Activity of protein kinase treated with 1 μM of I-1 (% control (DMSO)) SIK2): 15% |
| CN1CCN(CCOc2cc(OC3CCOCC3)c3c(Nc4c(Cl)ccc5c4OCO5)ncnc3c2)CC1 [saracatinib, reference compound] | reduced viability |  |  |  |  |
| Cc1ccc(NC(=O)c2ccc(CN3CCN(C)CC3)cc2)cc1Nc1nccc(-c2cccnc2)n1 [imatinib, reference compound] | non-toxic |  |  |  | effect on IL-10 production by BMDCs (in words) [2]: did not up-regulate IL-10 production |
| Cc1cccc(C)c1OC(=O)N1C/C=C/COCc2cc(ccc2OCCN2CCC(O)CC2)Nc2nccc1n2 [I-4] |  | 5000 nM | 93.8 nM | 409 nM | EC50 ([2]; zymosan-stimulated BMDCs): 10500 nM |
| COc1cc(Nc2c(C#N)cnc3cc(OCCCN4CCN(C)CC4)c(OC)cc23)c(Cl)cc1Cl [bosutinib, reference compound] | reduced viability |  |  |  |  |
| CCCCC[C@H](O)/C=C/[C@H]1[C@H](O)CC(=O)[C@@H]1C/C=C\CCCC(=O)O [PGE2, prostaglandin E2, reference compound] |  |  |  |  | IL-10 secretion ([6]; BMDCs pre-treated, LPS, R848 or zymosan 18 hr): similarly induced; IL-1β production ([6]; BMDCs, stimulation with R848 or zymosan): enhanced; NO production ([6]; BMDCs, zymosan stimulation, relative to HG-9-91-01-treated): increased NO production; effect on IL-10 production by BMDCs (in words) [2]: increased levels of IL-10; IL-10 mRNA levels [7]: robustly enhanced; abundance of Arg1 and Nos2 transcripts [7]: highly induced |
